{"source": "paper PMC11089505", "about": "“Structural Elucidation and Antiviral Activity of Covalent Cathepsin L Inhibitors” (Journal of Medicinal Chemistry, 2024)", "key": {"in vitro": {"assay": "in vitro", "settings": "African green monkey"}, "CatL [1]": {"molecular_target": "CatL", "settings": "cited from earlier work"}, "CatL [2]": {"molecular_target": "T1, CatL (Homo sapiens, UniProt P07711, T223A)", "T1 construct": "made in house; host or cells: Komagataella pastoris strain GS115", "T1 sequence (P07711 114-333 T223A)": "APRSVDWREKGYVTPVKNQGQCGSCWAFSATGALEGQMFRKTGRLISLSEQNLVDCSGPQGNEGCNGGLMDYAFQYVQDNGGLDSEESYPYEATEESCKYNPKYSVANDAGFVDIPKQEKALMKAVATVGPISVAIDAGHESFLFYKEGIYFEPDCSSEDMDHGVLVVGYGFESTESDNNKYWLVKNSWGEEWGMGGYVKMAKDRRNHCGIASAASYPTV", "assay": "NanoDSF, thermal stability of CatL", "format": "binding", "settings": "for 2:1, Tm average (CatL): 2:1 compound to protein; for 20:1, Tm average (CatL): 20:1 compound to protein"}, "SARS-CoV-2 Mpro": {"molecular_target": "SARS-CoV-2 Mpro (Severe acute respiratory syndrome coronavirus 2, UniProt P0DTD1)", "format": "binding", "settings": "for 2:1, Tm average (Mpro): 2:1 compound to protein"}, "CatL [3]": {"molecular_target": "T1, CatL", "assay": "CatL inactivation assay comparing epoxides at pH 6 and pH 4", "format": "biochemical", "protocol": "(§1) Experiments were performed in a solution of 50 mM sodium acetate, pH 4.0, 50 mM NaCl, 0.1% PEG 6000, and 5 mM DTT. Distinct assays with epoxide inhibitors at pH 6.0 were performed in 50 mM sodium phosphate buffer, 50 mM NaCl, 5 mM DTT, 0.1% PEG 6000, adjusted to pH 6.0.\n(§2) M1000 pro plate reader (Tecan), the fluorescent peptide substrate Z-RR-AMC, and excitation and emission wavelengths of 370 and 460 nm, respectively.\n(§3) At first, the inhibitor concentration span was optimized for each inhibitor and the assay buffer. For this initial screening, CatL (5 nM) was mixed with different concentrations of inhibitors (1 nM–50 μM) to determine the range of their inhibition. […] Reaction data were fitted to the […] in GraphPad Prism 9 software: Y = bottom + (top – bottom)/(1 + 10^∧((log IC50 – X) × HillSlope)); X is the log of dose or concentration, Y is the response (fluorescence signal), decreasing as X increases, top and bottom are the plateaus in the same units as Y, log IC50 same log units as X, HillSlope is the slope factor or called the Hill slope.\nFigure S7. Inactivation of CatL.\n(1 picture or pasted object on this page, not shown here)"}, "[4]": {"test_system": "SARS-CoV-2-GFP in Vero E6 cells", "assay": "microbe, parasite or virus in culture", "format": "cell-based"}, "CatL [5]": {"molecular_target": "T1, CatL", "assay": "CatL inhibition assay (Ki), substrate Z-RR-AMC", "format": "biochemical", "protocol": "as §1, §2, §3"}, "[6]": {"settings": "read-out: Ki of CatL inhibition"}}, "note": "“And” between values parts separate entries of the source, which are not always exact repeats. Equal values may be shown once. Read-outs that look alike come from different tables or passages of the source. Square brackets hold non-standard residues; d marks the D form. Peptide text beside a SMILES is read from it. Nle = CCCC[C@H](N)C(=O)O"}
{"compound": "CCCC[C@@H](C=O)NC(=O)[C@H](CC(C)C)NC(=O)OCc1ccccc1", "note": "[Calpeptin]", "values": [{"measurement": "viability at 48 h, 1e-05 µM", "setting": "in vitro", "value": 100, "unit": "%"}, {"measurement": "viability at 48 h, 0.0001 µM", "setting": "in vitro", "value": 98.4, "unit": "%"}, {"measurement": "viability at 48 h, 0.001 µM", "setting": "in vitro", "value": 99.3, "unit": "%"}, {"measurement": "viability at 48 h, 0.01 µM", "setting": "in vitro", "value": 97.9, "unit": "%"}, {"measurement": "viability at 48 h, 0.1 µM", "setting": "in vitro", "value": 101, "unit": "%"}, {"measurement": "viability at 48 h, 1 µM", "setting": "in vitro", "value": 101, "unit": "%"}, {"measurement": "viability at 48 h, 10 µM", "setting": "in vitro", "value": 105, "unit": "%"}, {"measurement": "Ki", "setting": "CatL [1]; [6]", "value": 0.13, "unit": "nM"}, {"measurement": "2:1, Tm average (CatL)", "setting": "CatL [2]", "value": 81.8, "unit": "°C"}, {"measurement": "20:1, Tm average (CatL)", "setting": "CatL [2]", "value": 82, "unit": "°C"}]}
{"compound": "CC(C)C[C@H](NC(=O)[C@H]1O[C@@H]1C(=O)O)C(=O)NCCCCN=C(N)N", "note": "[E-64, 3-[[[(1S)-1-[[[4-[(Aminoiminomethyl)amino]butyl]amino]carbonyl]-3-methylbutyl]amino]carbonyl]-(2S.3S)-oxiranecarboxylic acid]", "values": [{"measurement": "ΔTm (for Mpro), 2:1 compound to protein mixing ratio", "setting": "SARS-CoV-2 Mpro; 8 µM Mpro, pH 7.5, 2% DMSO, 2:1", "value": "-1,0 ± 0,2 °C and -1 °C"}, {"measurement": "2:1, Tm average (Mpro)", "setting": "SARS-CoV-2 Mpro", "value": 54.4, "unit": "°C"}, {"measurement": "Inactivation Rate", "setting": "CatL [3]; E-64, pH 4, 19.76 nM", "value": "0.0008123 per second and 0.00102 per second"}, {"measurement": "Inactivation Rate", "setting": "CatL [3]; E-64, pH 4, 29.64 nM", "value": "0.001302 per second and 0.001598 per second"}, {"measurement": "Inactivation Rate", "setting": "CatL [3]; E-64, pH 4, 44.45 nM", "value": "0.002006 per second and 0.002388 per second"}, {"measurement": "Inactivation Rate", "setting": "CatL [3]; E-64, pH 4, 66.68 nM", "value": "0.003192 per second and 0.003338 per second"}, {"measurement": "Inactivation Rate", "setting": "CatL [3]; E-64, pH 4, 100.01 nM", "value": "0.004626 per second and 0.004922 per second"}, {"measurement": "Inactivation Rate", "setting": "CatL [3]; E-64, pH 4, 225.00 nM", "value": "0.01185 per second and 0.01036 per second"}, {"measurement": "Inactivation Rate", "setting": "CatL [3]; E-64, pH 6, 19.76 nM", "value": "0.0005258 per second and 0.000578 per second"}, {"measurement": "Inactivation Rate", "setting": "CatL [3]; E-64, pH 6, 29.64 nM", "value": "0.0007668 per second and 0.0008131 per second"}, {"measurement": "Inactivation Rate", "setting": "CatL [3]; E-64, pH 6, 44.45 nM", "value": "0.001154 per second and 0.001247 per second"}, {"measurement": "Inactivation Rate", "setting": "CatL [3]; E-64, pH 6, 66.68 nM", "value": "0.001742 per second and 0.001837 per second"}, {"measurement": "Inactivation Rate", "setting": "CatL [3]; E-64, pH 6, 100.01 nM", "value": "0.002659 per second and 0.002717 per second"}, {"measurement": "Inactivation Rate", "setting": "CatL [3]; E-64, pH 6, 225.00 nM", "value": "0.006042 per second and 0.006005 per second"}, {"measurement": "ΔTm [K] for CatL, 2:1 ratio", "setting": "CatL [2]", "value": "4.1 ± 0.4", "unit": "K"}, {"measurement": "2:1, Tm average (CatL)", "setting": "CatL [2]", "value": 67.2, "unit": "°C"}, {"measurement": "20:1, Tm average (CatL)", "setting": "CatL [2]", "value": 76.9, "unit": "°C"}, {"measurement": "ΔTm (for CatL), 2:1 compound to protein mixing ratio", "setting": "CatL [2]; pH 5", "value": "4,1 ± 0,4 °C and 4.1 °C"}, {"measurement": "ΔTm (for CatL), 20:1 compound to protein mixing ratio", "setting": "CatL [2]; pH 5", "value": "13,8 ± 0,1 °C and 13.8 °C"}]}
{"compound": "CC(C)C[C@H](NC(=O)OCc1ccccc1)C(=O)N[C@@H](CC1CCNC1=O)C(O)S(=O)(=O)O", "note": "(some centres unmarked) [GC-376]", "values": [{"measurement": "Ki", "setting": "CatL [1]; [6]", "value": 0.26, "unit": "nM"}]}
{"compound": "CCCC[C@@H](C=O)NC(=O)[C@H](CC(C)C)NC(=O)[C@H](CC(C)C)NC(C)=O", "note": "[MG101] (Ac-Leu-Leu-[Nle]-aldehyde)", "values": [{"measurement": "viability at 48 h, 1e-05 µM", "setting": "in vitro", "value": 103, "unit": "%"}, {"measurement": "viability at 48 h, 0.0001 µM", "setting": "in vitro", "value": 102, "unit": "%"}, {"measurement": "viability at 48 h, 0.001 µM", "setting": "in vitro", "value": 102, "unit": "%"}, {"measurement": "viability at 48 h, 0.01 µM", "setting": "in vitro", "value": 102, "unit": "%"}, {"measurement": "viability at 48 h, 0.1 µM", "setting": "in vitro", "value": 102, "unit": "%"}, {"measurement": "viability at 48 h, 1 µM", "setting": "in vitro", "value": 101, "unit": "%"}, {"measurement": "viability at 48 h, 10 µM", "setting": "in vitro", "value": 63, "unit": "%"}]}
{"compound": "CCCC[C@@H](C=O)NC(=O)[C@H](CC(C)C)NC(=O)[C@H](CC(C)C)NC(C)=O", "note": "[MG-101, Acetyl-Leu-Leu-Nle-aldehyde] (Ac-Leu-Leu-[Nle]-aldehyde)", "values": [{"measurement": "2:1, Tm average (Mpro)", "setting": "SARS-CoV-2 Mpro", "value": 60.4, "unit": "°C"}, {"measurement": "Ki", "setting": "CatL [1]; read-out: Ki", "value": 0.5, "unit": "nM"}, {"measurement": "EC50", "setting": "[4]; Severe acute respiratory syndrome coronavirus 2, Vero C1008, 24 h, read-out: EC50 (after 24 h)", "value": 4.39, "unit": "nM"}, {"measurement": "EC50", "setting": "[4]; Severe acute respiratory syndrome coronavirus 2, Vero C1008, 48 h, read-out: EC50 (48 h)", "value": "< 500", "unit": "nM"}, {"measurement": "EC50", "setting": "[4]; Severe acute respiratory syndrome coronavirus 2, Vero C1008, 48 h, read-out: EC50 (after 48 h)", "value": 198, "unit": "nM"}, {"measurement": "Ki", "setting": "CatL [5]; read-out: Ki", "value": "0.064 nM and 0.0645 nM"}, {"measurement": "remaining activity at 69 pM", "setting": "CatL [5]; read-out: Residual activity (Vi/V0), MG-101 0.069 nM", "value": 91.8, "unit": "%"}, {"measurement": "remaining activity at 99 pM", "setting": "CatL [5]; read-out: Residual activity (Vi/V0), MG-101 0.099 nM", "value": 86.4, "unit": "%"}, {"measurement": "remaining activity at 0.000141 µM", "setting": "CatL [5]; read-out: Residual activity (Vi/V0), MG-101 0.141 nM", "value": 80.3, "unit": "%"}, {"measurement": "remaining activity at 0.000202 µM", "setting": "CatL [5]; read-out: Residual activity (Vi/V0), MG-101 0.202 nM", "value": 78.5, "unit": "%"}, {"measurement": "remaining activity at 0.000288 µM", "setting": "CatL [5]; read-out: Residual activity (Vi/V0), MG-101 0.288 nM", "value": 70.1, "unit": "%"}, {"measurement": "remaining activity at 0.000412 µM", "setting": "CatL [5]; read-out: Residual activity (Vi/V0), MG-101 0.412 nM", "value": 58.3, "unit": "%"}, {"measurement": "remaining activity at 0.000588 µM", "setting": "CatL [5]; read-out: Residual activity (Vi/V0), MG-101 0.588 nM", "value": 43.3, "unit": "%"}]}
